Assay results taken from patent US7368582B2, “Amidomethyl-substituted 2-(4-sulfonylamino)-3-hydroxy-3,4-dihydro-2H-chromen-6-yl compounds, a process and intermediates for their production, and pharmaceutical compositions containing them” (Solvay Pharmaceuticals GmbH, priority 2003, dated 2008).

Experiments:
[1] = test system: left atrium of rats' hearts; experiment: Functional refractory period prolongation on isolated left atria of rats' hearts in vitro; set-up: species or system rat (Sprague-Dawley); conditions: 10 μM
Protocol: 3. Investigation of the Functional Effectiveness of the Substances on the Atrium of Rats' Hearts in Vitro
In this test model it is determined to what extent the Kv 1.5-blocking substances of Formula I result in a prolongation of the functional refractory period in the left atrium of rats. The refractory period is the minimum possible elapsed time between the basic stimulus and additional stimulus in which a renewed contraction can be triggered. The extent of the prolongation of the functional refractory period is a measurement of the antiarrhythmic effectiveness of the substances according to the invention. The functional refractory period is determined by testing on the electrically stimulated preparation at what elapsed time from the preceding contraction a renewed contraction can be triggered by additional electrical stimuli.
The hearts were removed from freshly sacrificed rats (Sprague-Dawley, Charles-River, Germany). The left atria were isolated and fastened to force transducers in a temperature-controlled (30° C.), gasified (O2 95%, CO2 5%) organ bath which was filled with modified Tyrode solution (all values in mM: NaCl 137; KCl 2.7; CaCl2 1.8; MgCl2 0.8; NaHCO3 11.9; NaH2PO4 0.6; glucose 5). In order to trigger regular contractions, the preparations were electrically stimulated (rectangular pulses, pulse magnitude 3.5× threshold stimulus, pulse width 1.5 ms, frequency 1 Hz). Initially, the initial value of the functional refractory period was determined by applying extra pulses in addition to the basic stimulus, the elapsed time from the preceding basic stimulus being shortened until no further additional contraction could be triggered. Then the cumulative addition of increasing concentrations (0.1-10 μM) of the substances of Formula I took place at intervals of 20 min. each, the refractory period being determined again in each case 18 min. after the addition had taken place. Before the measurement, stock solutions of the test substances (3.2 and 0.32 mM in 100% DMSO) were prepared. In order to achieve the desired final concentrations of the substances (0.1-10 μM) in the organ bath (volume 100 ml), corresponding volumes of these stock solutions were then poured into the organ bath.
In each case the prolongation of the functional refractory period (FRP) in the left atrium of the rats' hearts in milliseconds observed after the addition of 10 μM of the respective substance of Formula I to the atrial preparations was given as characteristic variable.

[2] = test system: hearts of anaesthetised cats; experiment: Atrial and ventricular fibrillation threshold in anaesthetised cats in vivo; set-up: species or system cat; conditions: anaesthetized cats, dose 30 μmol/kg i.v.
From the text: 5. Investigation of the Functional Effectiveness of the Substances on the Hearts of Anaesthetised Cats in Vivo
In the test model shown below, it was shown that the substances according to the invention at most have a marked atrial-selective effect on the heart. After administration of the substances according to the invention, a significant increase in the atrial fibrillation threshold—i.e. the current intensity at which atrial fibrillation occurs—was observed. At the same time, on the other hand, the ventricular fibrillation threshold is influenced only minimally.
Living cats were anaesthetised with chloralose/urethane (50/300 mg/kg i.v.) and were ventilated with ambient air. Then, following thoracotomy, stimulating electrodes were attached to the right atrium and the ventricle. The atrial and ventricular fibrillation threshold was determined in known manner by administration of rectangular pulses of increasing current intensity until atrial or ventricular fibrillation occurred (for performance see in detail: Br. J. Pharmac. 17 (1961) 167; Hdb. exp. Pharmacol. XVI/3 (1975) 131; Pharmacol. Res. 25 Suppl. 2 (1992) 156). The test substances of Formula I were dissolved in propylene glycol (80%) and administered intravenously in increasing doses (5-30 μmol/kg). Atrial and ventricular fibrillation thresholds were then determined at 5-minute intervals in known manner after the addition of the respective dose. The increase in the respective fibrillation threshold due to the substances investigated was expressed in percent of the value before administration of substance, i.e. a doubling of the fibrillation threshold corresponds to an increase of 100%.

[3] = test system: ventricle of guinea pigs; experiment: Functional effectiveness on guinea-pig hearts in vivo (ERP, QT, QRS, systolic blood pressure); set-up: species or system guinea pig (Dunkin-Hartley); conditions: 1 min. after 10 μmole/kg i.v.; for QRS / QT / syst. blood pressure (change): guinea pigs; for syst. blood pressure (change): minus effects due to the vehicle, negative values indicate reduction; for ERP: ventricle of guinea pigs, negative values indicate shortening
From the text: 4. Investigation of the Functional Effectiveness of the Substances on Guinea-Pig Hearts in Vivo
In the test model shown below, it was shown that the substances according to the invention at most have slight undesirable proarrhythmic effects on repolarization in the ventricle. To this end, the influence of the compounds of Formula I on the effective refractory period (ERP) and other influencing variables on guinea-pig hearts in vivo were investigated. In this test model, non-selective potassium channel blockers not in accordance with the invention, which also block HERG and/or KvLQT1 channels, result in undesirable prolongation of the ERP and the QT time on an electrocardiogram (═ECG). The QT time is likewise a measurement of the repolarization in the heart. Prolongations of both the ERP and the QT time, respectively, which are due to the substances were independently interpreted as indications of the risk of the occurrence of undesirable torsade-de-pointes arrhythmias. Furthermore, the QRS interval also was determined in each case from the ECG as a measurement of the ventricular rate of spread of stimulus. Even a prolongation of the QRS interval caused by a test substance is connected with an increased risk of undesirable pro-arrhythmic side-effects. Therefore in this test model the lack of an ERP and QT time prolongation signifies a low risk, but the occurrence of a relevant ERP and QT prolongation on the other hand signifies an elevated risk of undesirable pro-arrhythmic effects. Also the lack of a prolongation of the QRS interval which is due to the substances due to the substances of Formula I investigated indicates a low risk of undesirable pro-arrhythmic side-effects, since lack of QRS prolongation indicates an undisturbed spread of stimulus in the ventricle. Conversely, a QRS prolongation, which is typically triggered by Class I antiarrhythmic drugs indicates slowing of the conduction rate and may promote the occurrence of ventricular tachycardias to ventricular fibrillation.
Male guinea pigs (Dunkin-Hartley from Charles River) were anaesthetized (ketamine 50 mg/kg, xylazine 10 mg/kg) and each of them was provided with a venous access via one jugular vein for administration of compounds of Formula I or a vehicle. A bipolar stimulation catheter was fed into the right ventricle of the guinea pigs via the other jugular vein (stimulation frequency 5 Hz). The arterial blood pressure was measured by a catheter located in the carotid artery which was connected to a Statham pressure transducer. The ECG was recorded via needle electrodes. The measured data were digitized via an analog/digital converter, recorded on a computer with suitable software (Ponemah Physiology Platform from Gould, USA) and printed out in parallel on a multichannel printer. After an equilibration period of 45 min., increasing doses of the compounds of Formula I or of the vehicle were administered intravenously (=i.v.) to the guinea pigs at 12-minute intervals. Before the first administration and in each case one minute after administration of increasing doses (0.1−max. 30 μmole/kg) of the substances of Formula I, the effective refractory period was measured. For this, after five normal stimuli in each case an additional pulse was applied and the elapsed time thereof from the preceding pulse was increased until a heart action was triggered. The observed time interval corresponds to the ERP of the ventricular myocardium.
In order to detect possible effects of the test substances on the blood pressure, in the same test model after each administration of substance the systolic and diastolic blood pressure was determined and compared with the previous blood-pressure level. The parameters were recorded automatically 1 and 8 min. after each administration of substance.
Only statistically significant effects were listed, with a t-test with a significance limit of P<0.05 being used for the statistical testing.

[4] = biological target: T1, Kv 1.3-potassium channel (Homo sapiens, UniProt P22001); experiment: In-vitro Kv 1.3-potassium channel-blocking effect (membrane potential-sensitive fluorescent dye in transfected CHO cells); assay type: cell-based; conditions: 10 μM test substance; CHO cells transfected with Kv 1.3; relative to reference margatoxin
T1 construct: expressed in transfected cells; host or cells: CHO cells, stably transfected with the Kv 1.3 plasmid using DMRIE-C
T1 sequence (P22001 whole entry): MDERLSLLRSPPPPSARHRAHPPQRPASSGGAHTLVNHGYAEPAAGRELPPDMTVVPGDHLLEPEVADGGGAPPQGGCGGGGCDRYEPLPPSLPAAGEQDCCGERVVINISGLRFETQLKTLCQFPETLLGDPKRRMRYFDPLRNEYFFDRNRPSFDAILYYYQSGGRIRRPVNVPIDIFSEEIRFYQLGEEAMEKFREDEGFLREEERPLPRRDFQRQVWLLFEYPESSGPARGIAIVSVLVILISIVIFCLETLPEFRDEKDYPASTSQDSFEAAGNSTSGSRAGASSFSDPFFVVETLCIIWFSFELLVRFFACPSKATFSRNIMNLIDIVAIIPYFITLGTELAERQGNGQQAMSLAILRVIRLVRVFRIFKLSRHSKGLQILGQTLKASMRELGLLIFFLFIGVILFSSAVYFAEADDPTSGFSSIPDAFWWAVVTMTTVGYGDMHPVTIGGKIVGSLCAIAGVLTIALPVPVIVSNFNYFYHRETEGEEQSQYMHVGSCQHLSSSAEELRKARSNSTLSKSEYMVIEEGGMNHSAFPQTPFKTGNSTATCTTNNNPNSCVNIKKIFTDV
From the text: 2. In-Vitro Investigation of the Kv 1.3-Potassium Channel-Blocking Effect of the Substances
In this test model, known oocytes of the Chinese hamster (═CHO) are used which are stably transfected with the Kv 1.3-potassium channel. The blockade of the cell-inherent Kv 1.3-potassium channel activity in the transfected cells is accompanied by a positive shift in the membrane potential from approx. −40 mV to −30 mV, whereas in the wild-type CHO cells investigated in parallel no significant shift in the membrane potential is triggered. A change in the membrane potential is thus connected to the reduction in the Kv 1.3-potassium channel activity. By blocking the Kv 1.3-potassium channels e.g. with substances of Formula I and the resulting change in the membrane potential, an accumulation of a membrane potential-sensitive fluorescent dye in intracellular compartments of the oocytes and ultimately increasing fluorescence occurs. The change in the membrane potential of the oocytes is therefore measured indirectly via the increase in fluorescence of the membrane potential-senstive dyes.
The cells were transfected with the Kv 1.3 plasmid in known manner with a commercially obtainable transfection reagent (DMRIE-C from Gibco BRL, Germany). The successful transfection was verified by immunofluorescence and by “patch-clamp” investigations of the potassium ion current. The fluorescence measurements were performed on a Tecan Safire fluorescence reader from Tecan, Germany. In each case, the increase in the fluorescent intensity caused by the blockade of the Kv 1.3-potassium channels in the oocytes with substances of Formula I in a concentration of 10 μM was determined as characteristic variable. The increase in the fluorescent intensity was given in each case in percent (%) compared with an increase in the fluorescent intensity caused by the reference substance margatoxin. Margatoxin is known as a selective Kv 1.3-potassium channel blocker (see e.g. M. Garcia-Calvo et al., J. Biol. Chem. 268 (1993) 18866-18874).

[5] = percent of value before administration

SMILES | FRP prolongation [1] | Selectivity factor (AFT:VFT) [2] | AFT (increase in the atrial fibrillation threshold) [2, 5] | VFT (increase in the ventricular fibrillation threshold) [2, 5] | QRS [3] | QT [3] | syst. blood pressure (change) [3] | ERP [3] | Increase in the fluorescent intensity (% margatoxin) [4]
CCc1ccc(S(=O)(=O)NC2c3cc(CC(=O)NC4CCCc5ccccc54)ccc3OC(C)(C)C2O)cc1 (centres unmarked) [Example 1, 2-(4-{[(4-Ethylphenyl)sulfonyl]amino}-3-hydroxy-2,2-dimethyl-3,4-dihydro-2H-chromen-6-yl)-N-1,2,3,4-tetrahydronaphth-1-yl acetamide] | 15 ms | 3 | 66% | 22% | n.s. | n.s. | n.s. | n.s. | –
CCc1ccc(S(=O)(=O)N[C@@H]2c3cc(CC(=O)NCc4ccccc4)ccc3OC(C)(C)[C@H]2O)cc1 [Example 11] | 24 ms | – | – | – | n.s. | n.s. | n.s. | n.s. | 99 % margatoxin
